Laboratory results from patent US20180311238A1, “Selective Agonist Of a6 Containing nAChRs” (Saniona A/S, priority 2017, published 2018).

What was measured:
[1] = test system: reserpine-induced tremors; test: Reserpine-induced tremors in rats (tremor monitor power spectra); assay type: in vivo, rat; conditions: reserpine 1 mg/kg i.v.; compound 0.1 and 1.0 mg/kg s.c.; L-DOPA 100 mg/kg i.p. + benserazide
Text: Parkinson's disease is associated with severe dopamine deficiency caused by neurodegeneration of dopaminergic cell bodies residing in Substantia Nigra pars compacta. As alpha6 nAChRs are enriched in the nigrostriatal dopamine pathway, activating this receptor may ameliorate symptoms in nigro-striatal dopamine deficiency models. Reserpine injections to rodents result in depletion of monoamines in the nigro-striatal dopamine pathway, resulting in catalepsy and tremors. Both behaviours can be quantified using dedicated tremor boxes.
Six groups of male Sprague Dawley rats (250-300 grams) were subjected to the following treatment schedules, and effects on power spectra, assessed in automated tremor monitors were evaluated for 30 minutes: • Vehicle+vehicle • Vehicle+reserpine (1 mg/kg) • 9-Methyl-3-pyridin-3-yl-3,9-diaza-bicyclo[3.3.1]nonane (0.1 mg/kg)+reserpine (1 mg/kg) • 9-Methyl-3-pyridin-3-yl-3,9-diaza-bicyclo[3.3.1]nonane (1.0 mg/kg)+reserpine (1 mg/kg) • L-DOPA (100 mg/kg)+reserpine (1 mg/kg) • 9-Methyl-3-pyridin-3-yl-3,9-diaza-bicyclo[3.3.1]nonane (1.0 mg/kg)+L-DOPA (100 mg/kg)+reserpine (1 mg/kg)
Reserpine was pre-treated i.v. 60 minutes prior to test start in a dose volume of 2 ml/kg. 9-Methyl-3-pyridin-3-yl-3,9-diaza-bicyclo[3.3.1]nonane was pre-treated s.c. 45 minutes prior to test start in a dose volume of 1 ml/kg. The dose of 9-methyl-3-pyridin-3-yl-3,9-diaza-bicyclo[3.3.1]nonane was based on 3H-epibatidin displacement studies showing half maximal displacement of specific binding of 3H-epibatidin in doses equaling 0.15 mg/kg in rats. L-DOPA was pre-treated i.p. 30 minutes prior to test start in a dose volume of 5 ml/kg. […] All animals dosed with L-DOPA was also dosed with the peripherally acting decarboxylase inhibitor Benserazide to prevent the peripheral break down of L-DOPA (benserazide: 50 mg/kg, s.c., 30 min. prior to test start in a dose volume of 1 ml/kg).

nicotinic receptors = test: 3H-epibatidin displacement studies in rats; assay type: in vivo
α7 = target: T1, α7 (Homo sapiens, UniProt P36544); test: Oocyte two-electrode voltage-clamp electrophysiology, α7; assay type: cell-based; conditions: Xenopus laevis oocytes, peak currents
T1 construct: expressed in transfected cells; host or cells: Xenopus laevis oocytes injected with cRNA
Method: Two-electrode voltage-clamp electrophysiology recordings were done in Xenopus laevis oocytes injected with approximately 25 ng cRNA. After injection, oocytes were incubated at 17° C. for 2-3 days. During measurements, an oocyte was placed in a custom designed recording chamber where compound solutions are added directly to the oocyte via a glass capillary. Compound solutions were prepared on the day of measurement and applied to oocytes with a flowrate of 2.0 ml/min. All datasets were baseline subtracted and responses to individual applications were read as peak current amplitudes. Concentration response relationships describing compound effect at a fixed acetylcholine concentration were fitted to a monophasic Hill-equation. Potency (EC50) and efficacy values (fitted maximal current relative to maximal current of acetylcholine).

T1 sequence (P36544 23-502): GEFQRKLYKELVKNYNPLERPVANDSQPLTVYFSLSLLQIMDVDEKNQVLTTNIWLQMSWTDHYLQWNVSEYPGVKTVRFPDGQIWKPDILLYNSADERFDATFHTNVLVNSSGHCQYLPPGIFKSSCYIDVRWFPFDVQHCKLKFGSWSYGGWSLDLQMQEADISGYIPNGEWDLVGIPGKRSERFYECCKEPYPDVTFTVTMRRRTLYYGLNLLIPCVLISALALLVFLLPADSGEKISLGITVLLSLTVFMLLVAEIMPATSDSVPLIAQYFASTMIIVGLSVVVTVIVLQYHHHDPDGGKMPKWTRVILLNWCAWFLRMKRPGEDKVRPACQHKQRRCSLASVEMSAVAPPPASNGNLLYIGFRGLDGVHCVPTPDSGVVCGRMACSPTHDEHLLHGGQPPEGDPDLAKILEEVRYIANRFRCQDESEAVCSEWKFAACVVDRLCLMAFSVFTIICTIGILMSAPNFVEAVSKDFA

## CN1C2CCCC1CN(c1cccnc1)C2 [9-methyl-3-pyridin-3-yl-3,9-diaza-bicyclo[3.3.1]nonane]
[1]
  effect on reserpine-induced tremors, AUC 40-63 Hz: dose-related reversal of reserpine tremors reaching statistical significance at 1.0 mg/kg
  reversal of reserpine-induced reduction of low frequency movements (catalepsy), AUC 3-13 Hz: Neither threshold dose of L-DOPA, nor 9-methyl-3-pyridin-3-yl-3,9-diaza-bicyclo[3.3.1]nonane or the combination of the two, was able to reverse this reduction
Nicotinic receptors
  dose giving half maximal displacement of specific binding of 3H-epibatidin: 0.15 mg/kg
α7
  EC50: 13 µM
